From paper PMC3853718 (Journal of Translational Medicine, 2013)

Test system: subjects with advanced malignancies
Assay: Phase 1 dose escalation: toxicity, safety and tolerability (DLT, MAD, RP2D, AEs)
Details: for TEAE: Abdominal distension / TEAE: Abdominal pain / TEAE: Anemia / TEAE: Asthenia / TEAE: Back pain / TEAE: Constipation / TEAE: Cough / TEAE: Decreased appetite / TEAE: Dehydration / TEAE: Diarrhea / TEAE: Dizziness / TEAE: Dyspnea / TEAE: Fatigue / TEAE: Flatulence / TEAE: Hyperbilirubinemia / TEAE: Hyperglycemia / TEAE: Hyperuricemia / TEAE: Hypokalemia / TEAE: Hypophosphatemia / TEAE: Increased ALP / TEAE: Increased ALT / TEAE: Increased AST / TEAE: Nausea / TEAE: Neutropenia / TEAE: Peripheral edema / TEAE: Pyrexia / TEAE: Subjects with any AE / TEAE: Urinary tract infection / TEAE: Vomiting / TEAE: Weight decreased: ≤ 5.08 mg/m^2 (n = 22)
Experimental: Subjects continued on treatment until there was disease progression, unacceptable toxicity, or the subject withdrew consent. The trial employed an accelerated titration design [16] starting at a dose of 0.33 mg/m^2 (one-sixth of the highest nontoxic dose in dogs).
the dose was doubled in sequential subjects until a DLT was observed or a subject experienced grade 2 toxicity [16]. In the case of an observed grade 2 toxicity, a second subject was enrolled at the same dose level. If the second subject also experienced a grade 2 toxicity, 2 additional subjects were accrued at that dose level for a total of 4 subjects. […] Each subject was allocated to only a single dose level of drug. Dose delay or modification was permitted based on laboratory and clinical assessment performed on the day of treatment.
Dose-limiting toxicities were determined during the first cycle for each dose level. A DLT was defined as any grade 3 or 4 hematologic toxicity lasting for at least 1 week, or as any grade 3 or 4 nonhematologic toxicity. […] Normal alkaline phosphatase level (< grade 1) at screening that rose to greater than or equal to grade 3; grade 1 or 2 alkaline phosphatase level at screening that rose to grade 4; grade 1 or 2 aspartate aminotransferase (AST) and/or alanine aminotransferase (ALT) levels at screening that doubled from baseline to become greater than or equal to grade 3; and any other abnormal nonhematology laboratory value greater than or equal to grade 3 that required medical intervention to treat, led to hospitalization, or persisted for at least 1 week were also considered DLTs.
Adverse events were graded based on the National Cancer Institute Common Terminology Criteria for Adverse Events (NCI CTCAE version 3.0) and were coded using the Medical Dictionary for Regulatory Activities (MedDRA version 13.0).

With `CCc1cnn2c(NCc3ccc[n+]([O-])c3)cc(N3CCCC[C@H]3CCO)nc12` [dinaciclib] the “Subjects with DLT in cycle 1” value (Dose level 14 mg/m^2, 5 subjects) was 2, the “treatment-related AE: anemia” value (RP2D 12 mg/m^2, 11 subjects) was 5 [45%] subjects [%] and the “treatment-related AE: asthenia” value (RP2D 12 mg/m^2, 11 subjects) was 3 [27%] subjects [%]. For the same molecule, the “treatment-related AE: fatigue” value (RP2D 12 mg/m^2, 11 subjects) was 4 [36%] subjects [%], the “treatment-related AE: hyperuricemia” value (RP2D 12 mg/m^2, 11 subjects) was 3 [27%] subjects [%] and the “treatment-related AE: nausea” value (RP2D 12 mg/m^2, 11 subjects) was 3 [27%] subjects [%]. For the same molecule, the “treatment-related AE: neutropenia” value (RP2D 12 mg/m^2, 11 subjects) was 4 [36%] subjects [%], the “treatment-related AE: pyrexia” value (RP2D 12 mg/m^2, 11 subjects) was 3 [27%] subjects [%] and the “treatment-related AE: vomiting” value (RP2D 12 mg/m^2, 11 subjects) was 3 [27%] subjects [%]. The Serious adverse events (Subject 2901, Breast carcinoma, 0.33 mg/m^2, regardless of causality) was “Anemia, confusion, lethargy”, the Serious adverse events (Subject 2914, Ovarian epithelial carcinoma, 3.63 mg/m^2, regardless of causality) was “Constipation, nausea, abdominal pain, vomiting” and the Serious adverse events (Subject 2915, Adenocarcinoma, 3.63 mg/m^2, regardless of causality) was “Hypocalcemia, hypokalemia, hypophosphatemia, coagulation time prolonged”. For the same molecule, the Serious adverse events (Subject 2919, Colon cancer, 3.63 mg/m^2, regardless of causality) was “Back pain, chest pain, dyspnea”, the Serious adverse events (Subject 2920, Melanoma, 3.63 mg/m^2, regardless of causality) was “Cholelithiasis, liver disorder” and the Serious adverse events (Subject 2922, Ovarian epithelial cancer, 3.63 mg/m^2, regardless of causality) was “Intestinal ischemia, pericardial effusion”. The Serious adverse events (Subject 2926, Pelvic sarcoma, 7.11 mg/m^2, regardless of causality) was “Deep vein thrombosis, anemia”, the Serious adverse events (Subject 2927, Gastric adenocarcinoma, 7.11 mg/m^2, regardless of causality) was “Vomiting, aspiration” and the Serious adverse events (Subject 2928, Gastrointestinal stromal tumor, 7.11 mg/m^2, regardless of causality) was “Gastric ulcer, hematemesis, asthenia, sepsis, dyspnea, mental status changes, overdose”. The Serious adverse events (Subject 2930, SCLC, 7.11 mg/m^2, regardless of causality) was “Cardiac arrest”, the Serious adverse events (Subject 2931, Esophageal carcinoma, 7.11 mg/m^2, regardless of causality) was “Esophageal obstruction, pyrexia, hemorrhagic anemia” and the Serious adverse events (Subject 2937, Adenoid cyst carcinoma, 14 mg/m^2, regardless of causality) was “Pneumothorax, cardiac tamponade, pneumoperitoneum, intestinal perforation, peritonitis, sepsis”. For the same molecule, the Serious adverse events (Subject 2940, Breast carcinoma, 14 mg/m^2, regardless of causality) was “Death”, the Serious adverse events (Subject 2945, NSCLC, 12 mg/m^2, regardless of causality) was “Cerebrovascular accident” and the Serious adverse events (Subject 2947, Colorectal cancer, 12 mg/m^2, regardless of causality) was “Pelvic abscess, septic shock, deep vein thrombosis”. For the same molecule, the Serious adverse events (Subject 2950, Colon cancer, 12 mg/m^2, regardless of causality) was “Deep vein thrombosis, bradycardia, respiratory failure, syncope, tumor lysis syndrome”, the Serious adverse events (Subject 2951, Ovarian metastatic cancer, 12 mg/m^2, regardless of causality) was “Anemia, neutropenic sepsis, sepsis, gastrointestinal hemorrhage, diarrhea, bacterial infection, neutropenia, thrombocytopenia” and the “SAE: anemia” value (all dose levels) was 3 (6%) subjects (%). For the same molecule, the “SAE: deep vein thrombosis” value (all dose levels) was 3 (6%) subjects (%), the “SAE: sepsis” value (all dose levels) was 3 (6%) subjects (%) and the “grade 3 or 4 treatment-related AE: hyperuricemia” value (all dose levels) was 3 [6%] subjects [%]. For the same molecule, the “grade 3 or 4 treatment-related AE: neutropenia” value (all dose levels) was 5 [10%] subjects [%], the “subjects with AEs leading to discontinuation of treatment” value (all dose levels) was 6 (13%) subjects (%) and the “subjects with grade 3 or 4 treatment-related AEs” value (all dose levels) was 16 subjects. The “subjects with serious AEs (SAEs)” value (all dose levels) was 17 (33%) subjects (%), the “treatment-related AE: anemia” value (all dose levels) was 10 [21%] subjects [%] and the “treatment-related AE: fatigue” value (all dose levels) was 7 [15%] subjects [%]. The “treatment-related AE: nausea” value (all dose levels) was 16 [33%] subjects [%], the “treatment-related AE: neutropenia” value (all dose levels) was 8 [17%] subjects [%] and the “treatment-related AE: vomiting” value (all dose levels) was 8 [17%] subjects [%]. The “subjects reporting treatment-emergent adverse events” value (all dose levels, 48 treated) was 47 (98%) subjects (%), the “subjects with AEs possibly related to study drug” value (all dose levels, 48 treated) was 35 (73%) subjects (%) and the “instances of grade 2 toxicity” value (at 1.32 mg/m^2) was 2. The “deaths due to disease progression” value (of 52 enrolled, considered unlikely related to study treatment) was 7 [13%] subjects [%], the “deaths due to AEs” value (of 52 enrolled, deemed unlikely related to dinaciclib, one subject never treated) was 4 (8%) subjects (%) and the “subjects who died during this study” value (of the 52 subjects enrolled) was 21%. The “TEAE: Abdominal distension” value (All grades) was 3 (14) n (%), the “TEAE: Abdominal pain” value (All grades) was 4 (18) n (%) and the “TEAE: Anemia” value (All grades) was 8 (36) n (%). The “TEAE: Asthenia” value (All grades) was 4 (18) n (%), the “TEAE: Back pain” value (All grades) was 8 (36) n (%) and the “TEAE: Constipation” value (All grades) was 5 (23) n (%). For the same molecule, the “TEAE: Cough” value (All grades) was 3 (14) n (%), the “TEAE: Decreased appetite” value (All grades) was 9 (41) n (%) and the “TEAE: Dehydration” value (All grades) was 8 (36) n (%). For the same molecule, the “TEAE: Diarrhea” value (All grades) was 3 (14) n (%), the “TEAE: Dizziness” value (All grades) was 0 n (%) and the “TEAE: Dyspnea” value (All grades) was 3 (14) n (%). For the same molecule, the “TEAE: Fatigue” value (All grades) was 7 (32) n (%), the “TEAE: Flatulence” value (All grades) was 3 (14) n (%) and the “TEAE: Hyperbilirubinemia” value (All grades) was 5 (23) n (%). For the same molecule, the “TEAE: Hyperglycemia” value (All grades) was 1 (5) n (%), the “TEAE: Hyperuricemia” value (All grades) was 1 (5) n (%) and the “TEAE: Hypokalemia” value (All grades) was 2 (9) n (%). The “TEAE: Hypophosphatemia” value (All grades) was 4 (18) n (%), the “TEAE: Increased ALP” value (All grades) was 3 (14) n (%) and the “TEAE: Increased ALT” value (All grades) was 3 (14) n (%). The “TEAE: Increased AST” value (All grades) was 3 (14) n (%), the “TEAE: Nausea” value (All grades) was 6 (27) n (%) and the “TEAE: Neutropenia” value (All grades) was 0 n (%). For the same molecule, the “TEAE: Peripheral edema” value (All grades) was 3 (14) n (%), the “TEAE: Pyrexia” value (All grades) was 3 (14) n (%) and the “TEAE: Subjects with any AE” value (All grades) was 21 (95) n (%). For the same molecule, the “TEAE: Urinary tract infection” value (All grades) was 5 (23) n (%), the “TEAE: Vomiting” value (All grades) was 2 (9) n (%) and the “TEAE: Weight decreased” value (All grades) was 4 (18) n (%). For the same molecule, the “TEAE: Abdominal distension” value (Grade 3–4) was 0 n (%), the “TEAE: Abdominal pain” value (Grade 3–4) was 1 (5) n (%) and the “TEAE: Anemia” value (Grade 3–4) was 1 (5) n (%). The “TEAE: Asthenia” value (Grade 3–4) was 2 (9) n (%), the “TEAE: Back pain” value (Grade 3–4) was 3 (14) n (%) and the “TEAE: Constipation” value (Grade 3–4) was 0 n (%). For the same molecule, the “TEAE: Cough” value (Grade 3–4) was 0 n (%), the “TEAE: Decreased appetite” value (Grade 3–4) was 0 n (%) and the “TEAE: Dehydration” value (Grade 3–4) was 0 n (%). The “TEAE: Diarrhea” value (Grade 3–4) was 0 n (%), the “TEAE: Dizziness” value (Grade 3–4) was 0 n (%) and the “TEAE: Dyspnea” value (Grade 3–4) was 1 (5) n (%). For the same molecule, the “TEAE: Fatigue” value (Grade 3–4) was 2 (9) n (%), the “TEAE: Flatulence” value (Grade 3–4) was 0 n (%) and the “TEAE: Hyperbilirubinemia” value (Grade 3–4) was 3 (14) n (%). For the same molecule, the “TEAE: Hyperglycemia” value (Grade 3–4) was 0 n (%), the “TEAE: Hyperuricemia” value (Grade 3–4) was 1 (5) n (%) and the “TEAE: Hypokalemia” value (Grade 3–4) was 1 (5) n (%). For the same molecule, the “TEAE: Hypophosphatemia” value (Grade 3–4) was 3 (14) n (%), the “TEAE: Increased ALP” value (Grade 3–4) was 1 (5) n (%) and the “TEAE: Increased ALT” value (Grade 3–4) was 1 (5) n (%). The “TEAE: Increased AST” value (Grade 3–4) was 1 (5) n (%), the “TEAE: Nausea” value (Grade 3–4) was 0 n (%) and the “TEAE: Neutropenia” value (Grade 3–4) was 0 n (%). For the same molecule, the “TEAE: Peripheral edema” value (Grade 3–4) was 0 n (%), the “TEAE: Pyrexia” value (Grade 3–4) was 0 n (%) and the “TEAE: Subjects with any AE” value (Grade 3–4) was 11 (50) n (%). The “TEAE: Urinary tract infection” value (Grade 3–4) was 0 n (%), the “TEAE: Vomiting” value (Grade 3–4) was 1 (5) n (%) and the “TEAE: Weight decreased” value (Grade 3–4) was 0 n (%).
